Assay results from PMC11726677, “Eradication of Therapy-Resistant Cancer Stem Cells by Novel Telmisartan Derivatives” (Journal of Medicinal Chemistry, 2024).

Legend:
K562-R cells [1] = assay: Metabolic activity of K562-R cells, compounds alone (modified MTT assay); format: cell-based, human; settings: 10 μM, 72 h, without imatinib; vehicle control = 100%
Protocol: (§1) The potential reduction in cell viability was determined using the modified MTT assay.
First, the compounds (10 μM) were applied alone to evaluate their effects per se.
(§2) COS-7 (2 × 10^3 cells per well), IGROV-1 SP (2.5 × 10^3 cells per well), A2780 V SP (1.5 × 10^3 cells per well), PC3-DR (4 × 10^3 cells per well), and DU145-DR (3 × 10^3 cells per well) cells were seeded in 96-well plates in triplicates and after 24 h, the compounds were added at the respective concentrations. K562-R and K562 cells (2 × 10^4 cells per well), were treated with the compounds 2 h after seeding. […] A modified MTT colorimetric assay (EZ4U kit, Biomedica) was used to determine the metabolic activity of the tested cells, according to the manufacturer’s instructions. Absorbance was measured and the optical density of the respective FCS-containing medium and of the substrate was subtracted to exclude nonspecific staining. Metabolic activity in the absence of the compounds (CTR, DMSO) was set to 100% as reference.

K562-R cells [2] = assay: Chemosensitizing: metabolic activity of K562-R cells cotreated with imatinib (modified MTT assay); format: cell-based, human; settings: for chemosensitizing effect, concentration-dependent analysis: 0.5–8 μM (transporter inhibitors 10 to 0.5 μM); for rate of imatinib-triggered cell death: at 10 μM; for metabolic activity of K562-R cells, combination with imatinib: compound 10 μM + imatinib 1 μM
Protocol: as §1
conc. 10 to 0.5 μM) over 72 h (Figure 3D).
as §2

[3] = tested on: primary human CML patient samples; assay: Colony forming cell (CFC) assay, primary CML patient samples; format: cell-based; settings: together with 1 μM of imatinib, once at the beginning of the 14 day assay; compound 10 μM
Description: Frozen peripheral blood mononuclear cells (PBMC) from TKI naïve CML patients and healthy controls were used for the CFC assay as described previously.[46] Briefly, thawed cells were resuspended a semisolid medium (Enriched MethocCult H4435, Stem Cell Technologies) supplemented with the respective compounds and cultured in small culture dishes for 2 weeks. Colonies were counted using an inverted microscope.

[4] = Turbidimetric aqueous solubility; format: physicochemical; settings: phosphate buffered saline, estimated precipitation range, PBS pH 7.4, 37 °C
Caco2 cells = assay: Caco2 permeability (bidirectional); format: in vitro ADME; settings: pH 7.4, 10 μM; for Caco2 permeability Papp B–A: basolateral to apical
Protocol: The medium was changed regularly and on day 20 the permeability study was performed. The monolayers were prepared by rinsing the apical and basolateral surfaces with Hanks Balanced Salt Solution (HBSS) twice at the desired pH and by incubating for 40 min to stabilize the physiological parameters. […] The compounds were diluted with buffer to a concentration of 10 μM (final DMSO concentration ≤1%) and added to the apical or basolateral sides of the cell monolayer. Compound permeability was assessed in duplicates and molecules of known permeability characteristics were used as controls (antipyrine, atenolol, talinolol, and estrone 3-sulfate). To calculate Papp, compound appearance was measured using LC–MS/MS. The efflux ratio was determined for bidirectional assays.

[5] = Microsomal metabolic stability, mouse; format: in vitro ADME; settings: for metabolic stability Mouse, % of compound remaining: after 30 min in MLM, 1 μM; for half-life at 1 µM: mouse, pooled mouse liver microsomes, pH 7.4, MLM, read-out: metabolic stability Mouse t1/2
Protocol: The stability of the compounds was assessed in pooled human and mouse liver microsomes (final protein concentration 0.5 mg/mL). […] At the appropriate time points, the reactions were stopped by transferring into acetonitrile. After protein precipitation, by centrifugation at 3000 rpm for 20 min at 4 °C, the sample supernatants were analyzed using LC–MS/MS analysis (control compounds were included). The elimination rate constant was determined from the ratio of the ln peak area to time. Half-life (t1/2) and intrinsic clearance (CLint) were calculated using the appropriate formulas.

[6] = Hepatocyte stability, human; format: in vitro ADME; settings: for half-life at 1 h, 1 µM / hepatocyte CLint at 1 h, 1 µM: human, cryopreserved human hepatocytes; for half-life at 1 h, 1 µM: read-out: hepatocytic stability human t1/2; for hepatocyte CLint at 1 h, 1 µM: after 60 min in HH, read-out: hepatocytic stability human, CLint
Protocol: Cryopreserved hepatocytes (human and mouse) were used to analyze the stability of the compounds. Hepatocytes (0.5 × 10^6 cells/mL in Williams E medium supplemented with 2 mM L-glutamine and 25 mM N-2-hydroxyethylpiperazin-Ń-ethanesulfonic acid (HEPES)) were preincubated at 37 °C. […] At the appropriate time points, the reactions were stopped by transferring into acetonitrile. After protein precipitation by centrifugation at 3000 rpm for 20 min at 4 °C, the sample supernatants were analyzed by LC–MS/MS analysis (control compounds were included). The elimination rate constant was determined from the ratio of the ln peak area to time. Half-life (t1/2) and intrinsic clearance (CLint) were calculated using the appropriate formulas.

[7] = tested on: A2780 V SP cells (ABCB1+); assay: SP analysis (DCV, flow cytometry) in A2780 V SP cells; format: cell-based, human; settings: 10 μM
Description: (§3) In recent studies, we described the side population (SP) phenotype as a marker that defines a heterogeneous cellular compartment with stem cell-characteristics in various cancer cell lines derived from solid tumors, such as ovarian cancer, breast cancer, and lung cancer.[26],[27]

[8] = tested on: IGROV-1 SP cells (ABCB1+); assay: SP analysis (DCV, flow cytometry) in IGROV-1 SP cells; format: cell-based, human; settings: 10 μM
Description: as §3

PC3-DR cells = assay: Chemosensitizing to docetaxel: metabolic activity of PC3-DR cells (MTT); format: cell-based, human; settings: compound 10 μM + DTX 12.5 nM, 72 h
Protocol: The chemosensitizing efficacy was investigated in the ovarian and prostate cancer cell lines using the above-described metabolic activity assay. Paclitaxel (PTX) served as a reference (CTR) in A2780 V SP and IGROV-1 SP cells and docetaxel (DTX) in PC3-DR and D145-DR cells.
as §2

[9] = molecular target: ABCB1 transporter in K562-R cells (Homo sapiens, UniProt P08183); assay: Side population (SP) analysis, DCV staining, flow cytometry; settings: 10 μM
ABCB1 transporter in K562-R cells, sequence (P08183 whole entry): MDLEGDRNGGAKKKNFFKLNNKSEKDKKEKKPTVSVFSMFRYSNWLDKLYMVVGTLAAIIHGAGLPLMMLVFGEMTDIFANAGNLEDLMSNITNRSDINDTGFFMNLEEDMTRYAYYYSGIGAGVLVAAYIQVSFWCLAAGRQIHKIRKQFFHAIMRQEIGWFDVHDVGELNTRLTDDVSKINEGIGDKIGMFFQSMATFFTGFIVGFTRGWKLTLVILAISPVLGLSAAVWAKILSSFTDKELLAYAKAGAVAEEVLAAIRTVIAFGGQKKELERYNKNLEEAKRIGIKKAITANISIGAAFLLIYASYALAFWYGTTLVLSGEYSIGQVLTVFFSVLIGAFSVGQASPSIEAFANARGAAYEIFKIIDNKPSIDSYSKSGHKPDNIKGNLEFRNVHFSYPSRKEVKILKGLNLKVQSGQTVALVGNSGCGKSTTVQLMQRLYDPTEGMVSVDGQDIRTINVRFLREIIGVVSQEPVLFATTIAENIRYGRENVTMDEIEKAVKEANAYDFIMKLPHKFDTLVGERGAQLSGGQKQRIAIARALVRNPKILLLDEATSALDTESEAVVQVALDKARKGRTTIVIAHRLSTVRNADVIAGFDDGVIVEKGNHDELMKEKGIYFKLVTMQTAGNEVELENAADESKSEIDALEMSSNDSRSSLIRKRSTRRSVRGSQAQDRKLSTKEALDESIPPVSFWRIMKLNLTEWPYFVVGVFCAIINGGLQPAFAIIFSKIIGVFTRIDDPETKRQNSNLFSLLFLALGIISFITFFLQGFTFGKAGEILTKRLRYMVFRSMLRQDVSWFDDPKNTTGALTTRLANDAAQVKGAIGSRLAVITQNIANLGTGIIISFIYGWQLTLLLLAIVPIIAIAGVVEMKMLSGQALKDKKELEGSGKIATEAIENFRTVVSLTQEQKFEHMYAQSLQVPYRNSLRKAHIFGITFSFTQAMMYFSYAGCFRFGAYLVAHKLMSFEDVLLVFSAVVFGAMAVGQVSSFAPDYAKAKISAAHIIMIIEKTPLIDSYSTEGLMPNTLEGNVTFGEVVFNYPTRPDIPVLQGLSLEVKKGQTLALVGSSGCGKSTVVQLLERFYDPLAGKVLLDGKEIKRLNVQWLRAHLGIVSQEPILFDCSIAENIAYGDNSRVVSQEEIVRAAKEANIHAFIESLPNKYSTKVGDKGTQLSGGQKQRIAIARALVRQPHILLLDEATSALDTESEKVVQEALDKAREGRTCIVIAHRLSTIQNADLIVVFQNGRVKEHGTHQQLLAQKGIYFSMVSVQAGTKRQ
Protocol: SP analyses were performed as previously described[45] on a LSRFortessa flow cytometer (BD Biosciences, Vienna, Austria). Briefly, 1 × 10^6 cells/mL were stained with 10 μM Vybrant DyeCycleTM Violet (DCV; Molecular Probes, Eugene, OR) in the presence or absence of the investigated compounds for 90 min at 37 °C. […] Subsequently, the cells were washed and immediately analyzed using flow cytometry. The FlowJo 9.6 software was used for data analyses (Tree Star Software, Ashland, CA).

Caco2 permeability Papp A–B (Caco2 cells; apical to basolateral) | SMILES | metabolic activity of K562-R cells, compound alone (K562-R cells [1]) | chemosensitizing effect, concentration-dependent analysis (K562-R cells [2]; K562-R, + imatinib 1 μM, 72 h) | rate of imatinib-triggered cell death (K562-R cells [2]; K562-R) [%] | metabolic activity of K562-R cells, combination with imatinib (K562-R cells [2]; 72 h) | number of colonies (CFC) [3] | solubility at 2 h [4] [µM] | Caco2 permeability Papp B–A (Caco2 cells) | metabolic stability Mouse, % of compound remaining [5] [%] | half-life at 1 µM [5] [min] | half-life at 1 h, 1 µM ([6]; HH) [min] | hepatocyte CLint at 1 h, 1 µM [6] [µL/min/1e6 cells] | effect on SP phenotype [7] | effect on SP phenotype [8] | chemosensitizing to DTX (antimetabolic activity) (PC3-DR cells) | effect on SP phenotype / ABCB1 activity [9] | EC50 (K562-R cells [2]; K562-R, + imatinib 1 μM, 72 h, read-out: SC50 (drug concentration eliciting 50% of the maximum sensitizing effect)) [nM] | clearance class ([6]; HH)
0.1 10^–6 cms^–1 | CCCc1nc2c(C)cc(-c3nc4ccccc4n3C)cc2n1Cc1ccc(-c2ccccc2C(=O)OC)cc1 [7b, Methyl 4′-((1,7′-dimethyl-2′-propyl-1H,3′H-[2,5′-bibenzo[d]imidazole]-3′-yl)methyl)-[1,1′-biphenyl]-2-carboxylate] | inactive | strongly sensitized the cells to imatinib therapy | > 85 | 8–24% | significantly reduced the number of colonies | < 6.5 | 0.2 10^–6 cms^–1 | 3 | 6 | 18.4 | 75.2 | eliminated the SP phenotype | eliminated the SP phenotype | only marginally increased the antimetabolic activity of DTX | completely repressed the SP phenotype | – | –
– | CCCc1nc2c(C)cc(-c3nc4ccccc4n3C)cc2n1Cc1ccc(-c2ccccc2C(N)=O)cc1 [7c, 4′-((1,7′-Dimethyl-2′-propyl-1H,3′H-[2,5′-bibenzo[d]imidazole]-3′-yl)methyl)-[1,1′-biphenyl]-2-carboxamide] | inactive | strongly sensitized the cells to imatinib therapy | > 85 | 8–24% | significantly reduced the number of colonies | < 6.5 | 30.8 10^–6 cms^–1 | 13.3 | 8.8 | 100 | 13.8 | eliminated the SP phenotype | eliminated the SP phenotype | most active chemosensitizer | completely repressed the SP phenotype | 1850 | medium clearance
